The target of assay [1] is T1, full length human TREX1 (Homo sapiens, UniProt Q9NSU2).
T1 construct: N-terminally His-Tev tagged full length human TREX1; made in house; host or cells: E. coli
T1 sequence (Q9NSU2 1-314): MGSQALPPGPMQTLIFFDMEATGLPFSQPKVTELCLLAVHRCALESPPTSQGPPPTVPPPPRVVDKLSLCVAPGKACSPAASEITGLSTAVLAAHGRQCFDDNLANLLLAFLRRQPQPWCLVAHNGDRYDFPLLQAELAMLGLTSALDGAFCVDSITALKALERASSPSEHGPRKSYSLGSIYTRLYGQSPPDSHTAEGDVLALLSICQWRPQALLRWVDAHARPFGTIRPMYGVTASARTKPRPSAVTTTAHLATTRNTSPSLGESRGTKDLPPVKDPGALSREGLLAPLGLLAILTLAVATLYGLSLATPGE
Briefly: hTREX1 Biochemical Assay (fluorescence, dsDNA substrate degradation). Conditions: biochemical, read-out: hTREX1 IC50. Summed up: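 Cleavage of 60 nM TEX615/quencher-labelled dsDNA in pH 7.4 Tris buffer with 5 mM MgCl2, 1.0% DMSO, run 18 hours at 25° C, EDTA-quenched; fluorescence read-out.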

Assay [2] concerns the target T2, full length mouse TREX1 (Mus musculus, UniProt Q91XB0).
T2 construct: N-terminally His-Tev tagged full length mouse TREX1; made in house; host or cells: E. coli
T2 sequence (Q91XB0 1-314): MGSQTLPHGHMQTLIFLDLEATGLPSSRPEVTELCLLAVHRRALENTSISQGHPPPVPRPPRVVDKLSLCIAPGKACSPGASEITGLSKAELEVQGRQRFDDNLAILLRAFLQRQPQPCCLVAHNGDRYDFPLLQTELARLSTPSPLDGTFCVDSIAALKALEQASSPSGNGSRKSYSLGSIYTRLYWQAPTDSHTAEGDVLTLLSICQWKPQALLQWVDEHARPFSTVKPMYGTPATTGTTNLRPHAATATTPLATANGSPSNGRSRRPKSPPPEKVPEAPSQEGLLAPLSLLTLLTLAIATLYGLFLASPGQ
Briefly: mTREX1 Biochemical Assay (fluorescence, dsDNA substrate degradation). Conditions: biochemical, read-out: mTREX1 IC50. In outline: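 Reaction run 18 h at 25° C. with 60 nM TEX615/quencher-labelled dsDNA and 6 pM mouse TREX1 in Tris buffer (pH 7.4, 5 mM MgCl2, 1.0% DMSO), enzyme having sat 4 h with compound across 10 concentrations. EDTA quench; substrate degradation measured as fluorescence increase.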

Assay [3] deals with T3, human TREX2 (residues M44-A279) (Homo sapiens, UniProt Q9BQ50).
T3 construct: human TREX2 (residues M44-A279, expressed in E. coli); made in house; host or cells: E. coli
T3 sequence (Q9BQ50 44-279 isoform Q9BQ50-1): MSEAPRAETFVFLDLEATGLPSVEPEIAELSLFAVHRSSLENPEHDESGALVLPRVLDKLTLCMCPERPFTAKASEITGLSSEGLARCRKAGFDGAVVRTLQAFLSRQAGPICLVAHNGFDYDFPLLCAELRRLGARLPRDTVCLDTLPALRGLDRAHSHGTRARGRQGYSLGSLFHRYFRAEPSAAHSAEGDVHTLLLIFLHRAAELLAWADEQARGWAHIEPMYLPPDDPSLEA
Kind of assay: hTREX2 Biochemical Assay (fluorescence, dsDNA substrate degradation). Conditions: biochemical selectivity for hTREX1 vs hTREX2. In outline:
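N-His-Tev E. coli enzyme (50 pM) pre-incubated with compound 4 h at 25 °C, then 60 nM TEX615/quencher dsDNA added; 18 h at 25 °C, pH 7.4 Tris buffer with 5 mM MgCl2, 1.0% DMSO. EDTA-quenched; fluorescence 570 ex/615 em from liberated fluorophore, 10-point dose-response.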

The target of assay [4] is T4, hTREX1 (Homo sapiens, UniProt Q9NSU2).
T4 construct: host or cells: HCT116 dual cells
T4 sequence (Q9NSU2 1-314): T1 sequence (Q9NSU2 1-314)
Briefly: hTREX1 HCT116 Cell Assay (HCT116 dual cells, Lucia luciferase reporter of Type I interferon induction). The class given is cell-based. The note with it: TREX1i 4 h before pBR322/BstNI transfection, read after 48 h. From the text: HCT116 dual cells (Invivogen, San Diego, CA, USA) are derived from the human HCT116 colorectal carcinoma cell line. Cells have been selected for the stable integration of SEAP and Luciferase reporter genes, which expression is under the control of 5 tandem response elements for NF-KB/AP1 and STAT1/STAT2, respectively. The cell line was used to monitor Type I interferon induction and subsequent signaling by measuring the activity of the Lucia luciferase secreted in the culture medium.
HCT116 cells were plated in 96-well plate(s) at 40,000 cells/well in 100 uL DMEM supplemented with 10% FBS and 25 mM Hepes (pH 7.2-7.5). After overnight settling, cells were treated with TREX1i for 4 h (maximum DMSO fraction was 0.1%) before 1 ug/mL pBR322/BstNI restriction digest (New England Biolabs, Ipswich, MA, USA) was transfected with Lipofectamine LTX (ThermoFisher, Grand Island, NY, USA), according to product manual recommendations. Briefly, Lipofectamine LTX (0.35 uL/well) was diluted in OptiMEM (5 uL/well). pBR322/BstNI (100 ng/well) was diluted in OptiMEM (5 uL/well) before Plus reagent (0.1 uL/100 ng DNA) was added. After 5 min incubation at room temperature, the DNA mixture was mixed dropwise with the diluted Lipofectamine LTX. After an additional 10 min incubation, the transfection mix (10 uL/well) was added to the cells. Cells were maintained at 37 C for 48 h before monitoring the Lucia Luciferase activity from the cell culture medium.

One may read the IC50 as the concentration that inhibits the measured activity by half. For `CC(c1nc(C(=O)Nc2cnoc2)c(O)c(=O)n1C)C(c1ccccc1C#N)c1ccnn1C` (single isomer, unassigned) [Example 1 D1E1], the values for the half-maximal inhibitory concentration (IC50) in assay [1], in assay [2] and in assay [4] were 1 to 10 nM, 1 to 10 nM and 10 to 100 nM, respectively. In addition, in assay [3], the “hTREX1 vs hTREX2 selectivity” value is listed as “A (A = <25 fold selective for hTREX1)”.

Consider `CC(c1nc(C(=O)Nc2cnoc2)c(O)c(=O)n1C)C(c1cnn(C)c1)c1ccccc1C#N` (single isomer, unassigned) [Example 2 D1E2], for which the concentration for half-maximal inhibition (IC50) was over 10 nM in assay [1], over 10 nM in assay [2] and over 100 nM in assay [4]. In addition, in assay [3], the “hTREX1 vs hTREX2 selectivity” value is listed as “A (A = <25 fold selective for hTREX1)”.

`CC(c1nc(C(=O)Nc2cnoc2)c(O)c(=O)n1C)C(c1cnn(C)c1)c1ccccc1C#N` (single isomer, unassigned) [Example 2 D2E2]: the 50% inhibitory concentration (IC50) in assay [1] was over 10 nM; in assay [2] it was over 10 nM; in assay [4] it was over 100 nM. Besides, the “hTREX1 vs hTREX2 selectivity” value in assay [3] is given as “A (A = <25 fold selective for hTREX1)”.

In the case of `Cc1nn(C)cc1C(c1ccccc1C#N)C(C)c1nc(C(=O)Nc2cnoc2)c(O)c(=O)n1C` (single isomer, unassigned) [Example 3 D1E1], the concentration for half-maximal inhibition (IC50) in assay [1] was under 1 nM; in assay [2], under 1 nM; in assay [4] it was under 10 nM. The “hTREX1 vs hTREX2 selectivity” value in assay [3] is “C (C = >50 fold selective for hTREX1)”.

Turning to `Cc1c(C(c2ccccc2C#N)C(C)c2nc(C(=O)Nc3cnoc3)c(O)c(=O)n2C)cnn1C` (single isomer, unassigned) [Example 4 D2E2], the IC50 in assay [1] was 1 to 10 nM; in assay [2], over 10 nM; in assay [4], over 100 nM. In assay [3], the “hTREX1 vs hTREX2 selectivity” value is “B (B = 25 to 50-fold selective for hTREX1)”.

For `Cc1ccc(C(c2ccccc2C#N)C(C)c2nc(C(=O)Nc3cnoc3)c(O)c(=O)n2C)cn1` (single isomer, unassigned) [Example 5 D1E2], the concentration for half-maximal inhibition (IC50) in assay [1] was under 1 nM; in assay [2] it was under 1 nM; in assay [4] it was under 10 nM. Besides, in assay [3], the “hTREX1 vs hTREX2 selectivity” value is reported as “B (B = 25 to 50-fold selective for hTREX1)”.

On to `Cc1cc(C(c2ccccc2C#N)C(C)c2nc(C(=O)Nc3cnoc3)c(O)c(=O)n2C)ccn1` (single isomer, unassigned) [Example 6 D1E1], for which the values for the IC50 in assay [1], in assay [2] and in assay [4] were under 1 nM, under 1 nM and under 10 nM, respectively. Further, the “hTREX1 vs hTREX2 selectivity” value in assay [3] is given as “C (C = >50 fold selective for hTREX1)”.

As for `Cc1cc(C(c2ccccc2C#N)C(C)c2nc(C(=O)Nc3cnoc3)c(O)c(=O)n2C)ccn1` (single isomer, unassigned) [Example 6 D1E2], the half-maximal inhibitory concentration (IC50) in assay [1] is 1 to 10 nM; in assay [2] it was over 10 nM; in assay [4] it was over 100 nM. In assay [3], the “hTREX1 vs hTREX2 selectivity” value is recorded as “B (B = 25 to 50-fold selective for hTREX1)”.

With `COCCn1cc(C(c2ccccc2C#N)C(C)c2nc(C(=O)Nc3cnoc3)c(O)c(=O)n2C)cn1` (single isomer, unassigned) [Example 9 D1E1], the IC50 was under 1 nM in assay [1], 1 to 10 nM in assay [2] and 10 to 100 nM in assay [4]. Besides, in assay [3], the “hTREX1 vs hTREX2 selectivity” value is listed as “C (C = >50 fold selective for hTREX1)”.

Turning to `COCCn1cc(C(c2ccccc2C#N)C(C)c2nc(C(=O)Nc3cnoc3)c(O)c(=O)n2C)cn1` (single isomer, unassigned) [Example 9 D2E1], the concentration for half-maximal inhibition (IC50) in assay [1] was 1 to 10 nM; in assay [2], over 10 nM; in assay [4], over 100 nM. For the same compound, in assay [3], the “hTREX1 vs hTREX2 selectivity” value is “C (C = >50 fold selective for hTREX1)”.

Consider `CC(c1nc(C(=O)Nc2cnoc2)c(O)c(=O)n1C)C(c1ccccc1C#N)c1cn(C)nc1C#N` (single isomer, unassigned) [Example 10 D2E1], for which the concentration for half-maximal inhibition (IC50) in assay [1] was under 1 nM; in assay [2] it was 1 to 10 nM; in assay [4] it was under 10 nM. Further, in assay [3], the “hTREX1 vs hTREX2 selectivity” value is on record as “C (C = >50 fold selective for hTREX1)”.

In the case of `CC(c1nc(C(=O)Nc2cnoc2)c(O)c(=O)n1C)C(c1cnn(C(F)F)c1)c1ccccc1C#N` (single isomer, unassigned) [Example 38 D2E2], the IC50 in assay [1] was 1 to 10 nM; in assay [2], over 10 nM; in assay [4] it was over 100 nM.

On to `CC(c1nc(C(=O)Nc2cnoc2)c(O)c(=O)n1C)C(c1cocn1)c1ccccc1C#N` (single isomer, unassigned) [Example 50 D1E1], for which the IC50 in assay [1] was 1 to 10 nM; in assay [2], over 10 nM; in assay [4], over 100 nM.

As to `CC(c1nc(C(=O)Nc2cnoc2)c(O)c(=O)n1C)C(c1ncn(C)n1)c1ccccc1C#N` (single isomer, unassigned) [Example 51 D1E2], the IC50 is 1 to 10 nM in assay [1], over 10 nM in assay [2] and 10 to 100 nM in assay [4].

Take `CC(c1nc(C(=O)Nc2cnoc2)c(O)c(=O)n1C)C(c1ccccc1C#N)c1c(C#N)cnn1C` (single isomer, unassigned) [Example 52 D1E1]: the figures for the IC50 in assay [1], in assay [2] and in assay [4] were 1 to 10 nM, over 10 nM and 10 to 100 nM, respectively.

For `CC(c1nc(C(=O)Nc2cnoc2)c(O)c(=O)n1C)C(c1ccccc1C#N)c1c(C#N)cnn1C` (single isomer, unassigned) [Example 52 D2E1], the concentration for half-maximal inhibition (IC50) in assay [1] is over 10 nM; in assay [2] it was over 10 nM; in assay [4], over 100 nM.

For the compound `CC(c1nc(C(=O)Nc2cnoc2)c(O)c(=O)n1C)C(c1cnn(C)c1)c1cc(F)ccc1Cl` (single isomer, unassigned) [Example 61 D1E1], the half-inhibitory concentration (IC50) in assay [1] is under 1 nM; in assay [2], 1 to 10 nM; in assay [4], under 10 nM.

With `Cc1nn(C)cc1C(c1cc(F)ccc1Cl)C(C)c1nc(C(=O)Nc2cnoc2)c(O)c(=O)n1C` (single isomer, unassigned) [Example 62 D2E2], the IC50 is under 1 nM in assay [1], 1 to 10 nM in assay [2] and under 10 nM in assay [4].

With `CCn1ncc(C(c2ccc(F)cc2C#N)C(C)c2nc(C(=O)Nc3cnoc3)c(O)c(=O)n2C)c1C` (single isomer, unassigned) [Example 65 D1E1], the IC50 in assay [1] is under 1 nM; in assay [2], under 1 nM; in assay [4], under 10 nM.

On to `CCn1ncc(C(c2ccccc2C#N)C(C)c2nc(C(=O)Nc3cnoc3)c(O)c(=O)n2C)c1C` (single isomer, unassigned) [Example 68 D1E1], for which the half-maximal inhibitory concentration (IC50) in assay [1] is under 1 nM; in assay [2], under 1 nM; in assay [4], under 10 nM.

Consider `Cc1nn(C)c(C)c1C(c1ccccc1C#N)C(C)c1nc(C(=O)Nc2cnoc2)c(O)c(=O)n1C` (single isomer, unassigned) [Example 78 D2E1], for which the results for the IC50 in assay [1], in assay [2] and in assay [4] were 1 to 10 nM, over 10 nM and 10 to 100 nM, respectively.

The values are drawn from US20240246946A1, “MODULATORS OF TREX1” (Constellation Pharmaceuticals, Inc., priority 2021, published 2024).
